Where two headings read alike, the source gives them in different places.
What was measured:
HIV-1 (RF) in MT-2 cells = assay: microbe, parasite or virus in culture; type: cell-based
How it was run: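 Read-out: gag and pol viral RNA captured by 5′-biotinylated oligonucleotides on streptavidin-coated wells, detected with alkaline phosphatase-linked reporter oligonucleotides, calibrated against BH10 in vitro transcripts. Virus stocks (RF, MN, IIIB) come from H9 cultures; MT-2 host cells kept in RPMI 1640, 5% FCS.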

HIV protease = molecular target: T1, HIV protease (Human immunodeficiency virus type 1 group M subtype B, UniProt P04585); assay: biochemical; parameters: species or system HIV-1
T1 construct: plasmid containing HIV protease under the control of an inducible T7 promoter; made in house; host or cells: E. coli (inclusion bodies, T7 promoter)
Experimental: HIV Protease Inhibition Assay—Spectroscopic Method
Inclusion bodies were solubilized in 8M urea, 50 mM tris pH 8.0. Protease activity was recovered by dilution 20-fold into buffer containing 50 mM sodium acetate pH 5.5, 1 mM EDTA, 10% glycerol and 5% ethylene glycol. Enzyme was used at a final concentration of 1.0-10 ug/ml.
Stock solutions of 10 mM were prepared in DMSO.
All further dilutions were done in DMSO.

[1] = Human immunodeficiency virus 1, MT2, Table 1c, read-out: IC90
[2] = Human immunodeficiency virus 1, MT2, Table 2A, read-out: IC90
[3] = Human immunodeficiency virus 1, MT2, second table headed Table 2A, read-out: IC90
[4] = second table headed Table 2A, read-out: Ki
[5] = Human immunodeficiency virus 1, MT2, 24 h, Table 1d, upper part, read-out: IC90
[6] = Table 1d, upper part, read-out: Ki
[7] = Human immunodeficiency virus 1, MT2, Table 1e, read-out: IC90

In the case of `N#CN=C1N(Cc2ccc(O)cc2)C(Cc2ccccc2)C(O)C(O)C(Cc2ccccc2)N1Cc1ccc(O)cc1` (stereo not shown) [Example 1BU], the IC90 (HIV-1 (RF) in MT-2 cells; [1]) is reported as less than 10 µg/mL, the Ki (HIV protease; Ki) is reported as less than 10 nM and the melting point is reported as 103.3 °C.

Work on `O=C1N(CCCc2ccccc2)C(Cc2ccccc2)C(O)C(O)C(Cc2ccccc2)N1CCCc1ccccc1` (stereo not shown) [Example 2B] yielded an IC90 (HIV-1 (RF) in MT-2 cells; [2]) of less than 10 µg/mL, an IC90 (HIV-1 (RF) in MT-2 cells; [3]) of less than 10 µg/mL and a Ki (HIV protease; Table 2A, read-out: Ki) of 10 to 1000 nM. For the same molecule, the Ki (HIV protease; [4]) was 10 to 1000 nM and the melting point was 120.7 °C.

Molecule `N#CN=C1N(Cc2ccc3ccccc3c2)C(Cc2ccccc2)C(O)C(O)C(Cc2ccccc2)N1Cc1ccc2ccccc2c1` (stereo not shown) [Example 1BY] has an IC90 (HIV-1 (RF) in MT-2 cells; [1]) greater than 100 µg/mL, a Ki (HIV protease; Ki) of 10 to 1000 nM and a melting point of 111.1 °C.

Work on `CC(C)CCCCN1C(=O)N(CCCCC(C)C)C(Cc2ccccc2)C(O)C(O)C1Cc1ccccc1` (stereo not shown) [Example 1AN] yielded a Ki (HIV protease; Ki) of 10 to 1000 nM and a melting point of 105 to 107 °C.

For `CC(C)CCN1C(=NC#N)N(CCC(C)C)C(Cc2ccccc2)C(O)C(O)C1Cc1ccccc1` (stereo not shown) [Example 1CM], the IC90 (HIV-1 (RF) in MT-2 cells; [1]) was less than 10 µg/mL, the Ki (HIV protease; Ki) was 10 to 1000 nM and the melting point was 76.1 °C.

With `CC(C)=CCN1C(=NC#N)N(CC=C(C)C)C(Cc2ccccc2)C(O)C(O)C1Cc1ccccc1` (stereo not shown) [Example 1CI] the IC90 (HIV-1 (RF) in MT-2 cells; [1]) was less than 10 µg/mL, the Ki (HIV protease; Ki) was 10 to 1000 nM and the melting point was 72.9 °C.

`C=CCN1C(=O)N(CC=C(C)C)C(Cc2ccccc2)C(O)C(O)C1Cc1ccccc1` (stereo not shown) [Example 2C] gave an IC90 (HIV-1 (RF) in MT-2 cells; [2]) of less than 10 µg/mL, an IC90 (HIV-1 (RF) in MT-2 cells; [3]) of less than 10 µg/mL and a Ki (HIV protease; Table 2A, read-out: Ki) of less than 10 nM. It also gave a Ki (HIV protease; [4]) of less than 10 nM and a melting point of 62 °C.

`CCN1C(=O)N(CC)C(Cc2ccccc2)C(O)C(O)C1Cc1ccccc1` (stereo not shown) [Example 1AD] showed a Ki (HIV protease; Table 1a, read-out: Ki) of 10 to 1000 nM and a melting point of 214 to 215 °C.

`O=C1N(CCN2CCOCC2)C(Cc2ccccc2)C(O)C(O)C(Cc2ccccc2)N1CCN1CCOCC1` (stereo not shown) [Example 1AA] showed a Ki (HIV protease; Table 1a, read-out: Ki) greater than 1000 nM and a melting point of 70 to 75 °C.

With `O=C1N[C@H](C(O)Cc2ccccc2)[C@@H](O)[C@@H](Cc2ccccc2)N1Cc1ccccc1` (stereo partly shown) [Example 8Q] the IC90 (HIV-1 (RF) in MT-2 cells; Table 1e) was “++ (++=10 to 100 μg/mL)” and the Ki (HIV protease; Table 1e, read-out: Ki) was 10 to 1000 nM.

For `N#CN=C1N(Cc2cccc(CO)c2)C(Cc2ccccc2)C(O)C(O)C(Cc2ccccc2)N1Cc1cccc(CO)c1` (stereo not shown) [Example 1CO], the IC90 (HIV-1 (RF) in MT-2 cells; [1]) was less than 10 µg/mL, the Ki (HIV protease; Ki) was less than 10 nM and the melting point was 193.8 °C.

In the case of `C=CCN1C(=O)N(CC=C)C(Cc2ccccc2)C(OC(C)=O)C(O)C1Cc1ccccc1` (stereo not shown) [Example 7A], the IC90 (HIV-1 (RF) in MT-2 cells; [5]) is reported as less than 10 µg/mL and the Ki (HIV protease; [6]) is reported as greater than 1000 nM.

For `O=C1OC2C(OC1=O)C(Cc1ccccc1)N(Cc1ccc3ccccc3c1)C(=O)N(Cc1ccc3ccccc3c1)C2Cc1ccccc1` (stereo not shown) [Example 7P], the IC90 (HIV-1 (RF) in MT-2 cells; [5]) was less than 10 µg/mL and the Ki (HIV protease; [6]) was less than 10 nM.

Work on `O=C1N(Cc2cccc(CO)c2)[C@H](CCc2ccccc2)[C@@H](O)[C@@H](Cc2ccccc2)N1Cc1cccc(CO)c1` [Example 8Z] yielded an IC90 (HIV-1 (RF) in MT-2 cells; [7]) of less than 10 µg/mL and a Ki (HIV protease; Ki) of less than 10 nM.

With `NC(=O)c1cccc(CN2C(=O)N3C(Cc4ccccc4)C3C(O)C2Cc2ccccc2)c1` (stereo not shown) [Example 21G] the IC90 (HIV-1 (RF) in MT-2 cells; Table 2j) was “++ (++=10 to 100 μg/mL)” and the Ki (HIV protease; Table 2j, read-out: Ki) was 10 to 1000 nM.

Molecule `[N-]=[N+]=NC(Cc1ccccc1)C1C(O)C(Cc2ccccc2)N(Cc2ccc3ccccc3c2)C(=O)N1Cc1ccc2ccccc2c1` (stereo not shown) [Example 7Y] has an IC90 (HIV-1 (RF) in MT-2 cells; [7]) greater than 100 µg/mL and a Ki (HIV protease; Table 1e, read-out: Ki) of 10 to 1000 nM.

For `O=C1NC(Cc2ccccc2)C(O)C2C(Cc3ccccc3)N12` (stereo not shown) [Example 21A], the IC90 (HIV-1 (RF) in MT-2 cells; Table 2j) was “++/+ (The ++/+ is used in the cases where an IC90 was determined to be >50 μg/mL)” and the Ki (HIV protease; Table 2j, read-out: Ki) was greater than 1000 nM.

`O=C1N(Cc2cc(F)cc(C(F)(F)F)c2)C(Cc2ccccc2)C(O)C(O)C(Cc2ccccc2)N1Cc1cc(F)cc(C(F)(F)F)c1` (stereo not shown) [Example 2M] showed a Ki (HIV protease; Table 2A, read-out: Ki) of 10 to 1000 nM, a Ki (HIV protease; [4]) of 10 to 1000 nM and a melting point of 162.3 °C.

Molecule `CC(=O)OC1C(OC(C)=O)C(Cc2ccccc2)N(Cc2ccc3ccccc3c2)C(=O)N(Cc2ccc3ccccc3c2)C1Cc1ccccc1` (stereo not shown) [Example 7J] has an IC90 (HIV-1 (RF) in MT-2 cells; [5]) greater than 100 µg/mL and a Ki (HIV protease; [6]) of 10 to 1000 nM.

With `C#CCN1C(=O)N(CC#C)C(Cc2ccccc2)C(O)C(O)C1Cc1ccccc1` (stereo not shown) [Example 1AP] the Ki (HIV protease; Table 1a, read-out: Ki) was 10 to 1000 nM and the melting point was 198 to 200 °C.

Molecule `CCCCCN1C(=O)N(CCCCC)C(Cc2ccccc2)C(O)C(O)C1Cc1ccccc1` (stereo not shown) [Example 1AK] has a Ki (HIV protease; Ki) of less than 10 nM and a melting point of 125 to 127 °C.

`CCCCCCCN1C(=O)N(CCCCCCC)C(Cc2ccccc2)C(O)C(O)C1Cc1ccccc1` (stereo not shown) [Example 1AB] showed a Ki (HIV protease; Table 1a, read-out: Ki) of 10 to 1000 nM and a melting point of 100 to 101 °C.

In the case of `NC(=NO)c1cccc(CN2C(=O)N3C(Cc4ccccc4)C3C(O)C2Cc2ccccc2)c1` (stereo not shown) [Example 21H], the IC90 (HIV-1 (RF) in MT-2 cells; Table 2j) is reported as “+++ (+++=<10 μg/mL)” and the Ki (HIV protease; Table 2j, read-out: Ki) is reported as 10 to 1000 nM.

`C=CCN1C(=O)N(CC=C)C(Cc2ccccc2)C2OS(=O)OC2C1Cc1ccccc1` (stereo not shown) [Example 7C] gave an IC90 (HIV-1 (RF) in MT-2 cells; [5]) of less than 10 µg/mL and a Ki (HIV protease; [6]) of less than 10 nM.

In the case of `O=C1N(Cc2ccccc2)C(Cc2ccccc2)C(O)C(O)C(Cc2ccccc2)N1CC1CC1` (stereo not shown) [Example 2F], the IC90 (HIV-1 (RF) in MT-2 cells; [2]) is reported as less than 10 µg/mL, the IC90 (HIV-1 (RF) in MT-2 cells; [3]) is reported as less than 10 µg/mL and the Ki (HIV protease; Table 2A, read-out: Ki) is reported as less than 10 nM. For the same molecule, the Ki (HIV protease; [4]) was less than 10 nM.
